Experimental data taken from PubChem BioAssay AID2060618 (Molecular Pharmacology Branch, DTP, NCI, 2025).

System: 454973-116-R2-J3-PDC spheroids, percent test/control viability
Assay: Anticancer human tumor 454973-116-R2-J3-PDC patient-derived pancreatic carcinoma cell line growth inhibition [CLK]
Details: spheroids with HUVEC and MSC; for IC50: curve of first compound; for viability, T/C: stronger effect = lower value
Excerpt: A high-throughput screen of multi-cell type tumor spheroids was designed to identify active combinations of […] and targeted small molecules. Complex spheroids include a stromal component modeled by human endothelial cells (HUVEC) and fibroblasts modeled by human mesenchymal stem cells (MSCs). The concentration ranges selected for each drug and investigational agent were based upon clinically achievable concentrations if the clinical Cmax of the agent was known.
Compounds. The drugs and investigational agents: cirtuvivint (SM08502; NSC835563), CC-671 (NSC850746), vemurafenib (NSC761431), tapotoclax (NSC804041), sotorasib (NSC818433), adagrasib (NSC831453), MRTX-1133 (NSC836407), BAY2416964 (NSC825713), copanlisib (NSC816437), inavolisib (NSC800729), abemaciclib (NSC768073), osimertinib (NSC779217), entinostat (NSC756642), eltanexor (KPT-8602, NSC794443), venetoclax (NSC766270), ceralasertib (NSC777638), bortezomib (NSC756655), olaparib (NSC753686), talazoparib (NSC767125), alisertib (NSC759677), peposertib (NSC802822), gemcitabine (NSC613327), 5-fluorouracil (NSC19893), SN-38 (NSC673596), oxaliplatin (NSC266046), paclitaxel (NSC125973), and doxorubicin (NSC123127), were obtained from the National Cancer Institute (NCI) Developmental Therapeutics Program Chemical Repository. The FDA-approved anticancer drug set is available from the Developmental Therapeutics Program at https://dtp.cancer.gov/organization/dscb/obtaining/available plates.htm. […] The stock solutions were prepared in dimethyl sulfoxide (DMSO, Sigma-Aldrich, St. Louis, MO, cat. D2650), except for the platinum complexes which were prepared in saline (Quality Biological, Gaithersburg, MD, cat. 114-055-101), at 800-fold the tested concentration and stored at -70 degrees C prior to their use. All drugs and investigational agents were tested over a range starting from a high concentration at or near the clinical Cmax and decreasing in half-log increments. If the clinical Cmax for an agent had not been determined, the highest concentration tested was 10 microM.
Cell Culture. All cells were maintained in an incubator at 37 degrees C and 5% CO2 with 95% humidity. The PDC lines were cultured according to standard operating procedures established by the NCI PDMR. Briefly, all PDCs were thawed and cultured in Matrigel-coated flasks prepared with a working solution of 1X Ham's F-12 nutrient mix, without supplementation (Invitrogen, Waltham, MA, cat. 11765054), 100 U/mL penicillin-streptomycin (Invitrogen, cat. 15140122), and 2.5% Matrigel (Corning Inc., Corning, NY, cat. 354248) for the first three passages. The 947758-054-R-J2-PDC line was cultured in 6B/Colon 1A media, which includes advanced DMEM/F-12 (Thermo Fisher Scientific, cat. 12634028), 10 mM HEPES (Thermo Fisher Scientific, cat. 15630080), 1X GlutaMAX supplement (Thermo Fisher Scientific, cat. 35050061), 0.1 mg/mL primocin (InvivoGen, cat. ant-pm-2), 10% defined fetal bovine serum, heat inactivated (HyClone Laboratories Inc., cat. SH30070.03HI), 1.25 mM N-Acetyl-L-cysteine (Sigma-Aldrich, cat. A9165), 10 mM nicotinamide (Sigma-Aldrich, cat. N0636), 1X B-27 supplement (Thermo Fisher Scientific, cat. 17504044), 1X N-2 supplement (Thermo Fisher Scientific, cat. 17502048), and 10 microM Y-27632 dihydrochloride (Tocris Bioscience, cat. 1254). The 876862-298-R-J1-PDC was cultured in 6E media, which includes all 6B/Colon 1A media components plus 50% L-WRN conditioned media (ATCC, cat. CRL-3276), 50 ng/mL recombinant human EGF recombinant protein (hEGF; Thermo Fisher Scientific, cat. PHG0311), 10 ng/mL recombinant human fibroblast growth factor 10 (hGFG-10; PeproTech, cat. 100-26), 1 ng/mL recombinant human fibroblast growth factor 2 (hFGF-2; PeproTech, cat. 100-18B), and 1 µM prostaglandin E2 (PGE2; Tocris, cat. 2296). The 227483-062-R1-J1-PDC line was cultured in Panc media, containing all 6E components except hFGF-2, with the addition of 500 nM SB-431542 (Selleckchem, cat. S1067) and 10 nM gastrin (Tocris, cat. 3006). […]

[1] = second compound 0.0316 µM, first compound 0.0316 µM
[2] = second compound 0.0316 µM, first compound 0.1 µM
[3] = second compound 0.0316 µM, first compound 0.316 µM
[4] = second compound 0.0316 µM, first compound 1 µM
[5] = second compound 0.0316 µM, first compound 3.16 µM
[6] = second compound 0.0316 µM, first compound 10 µM
[7] = second compound 0.1 µM, first compound 0.0316 µM
[8] = second compound 0.1 µM, first compound 0.1 µM
[9] = second compound 0.1 µM, first compound 0.316 µM
[10] = second compound 0.1 µM, first compound 1 µM
[11] = second compound 0.1 µM, first compound 3.16 µM
[12] = second compound 0.1 µM, first compound 10 µM
[13] = second compound 0.316 µM, first compound 0.0316 µM
[14] = second compound 0.316 µM, first compound 0.1 µM
[15] = second compound 0.316 µM, first compound 0.316 µM
[16] = second compound 0.316 µM, first compound 1 µM
[17] = second compound 0.316 µM, first compound 3.16 µM
[18] = second compound 0.316 µM, first compound 10 µM
[19] = second compound 1 µM, first compound 0.0316 µM
[20] = second compound 1 µM, first compound 0.1 µM
[21] = second compound 1 µM, first compound 0.316 µM
[22] = second compound 1 µM, first compound 1 µM
[23] = second compound 1 µM, first compound 3.16 µM
[24] = second compound 1 µM, first compound 10 µM
[25] = second compound 3.16 µM, first compound 0.0316 µM
[26] = second compound 3.16 µM, first compound 0.1 µM
[27] = second compound 3.16 µM, first compound 0.316 µM
[28] = second compound 3.16 µM, first compound 1 µM
[29] = second compound 3.16 µM, first compound 3.16 µM
[30] = second compound 3.16 µM, first compound 10 µM
[31] = second compound 10 µM, first compound 0.0316 µM
[32] = second compound 10 µM, first compound 0.1 µM
[33] = second compound 10 µM, first compound 0.316 µM
[34] = second compound 10 µM, first compound 1 µM
[35] = second compound 10 µM, first compound 3.16 µM
[36] = second compound 10 µM, first compound 10 µM
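Also: spheroids exposed to compounds for 7 days before readout.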

SMILES: C=C(F)C(=O)N1CCN(c2nc(OCC3CCCN3C)nc3c2CCN(c2cccc4cccc(Cl)c24)C3)CC1CC#N (stereo unspecified) + CN1CCN(c2cc(C(=O)Nc3cc4cc(-c5cnn(C)c5)ccc4cn3)ccn2)CC1
- IC50 (second compound 0.0316 µM): 5.76 µM
- IC50 (second compound 0.1 µM): 4.99 µM
- IC50 (second compound 0.316 µM): < 0.0316 µM
- IC50 (second compound 1 µM): < 0.0316 µM
- IC50 (second compound 3.16 µM): < 0.0316 µM
- IC50 (second compound 10 µM): < 0.0316 µM
- viability, T/C [1]: 97.8%
- viability, T/C [2]: 109%
- viability, T/C [3]: 98.9%
- viability, T/C [4]: 101%
- viability, T/C [5]: 101%
- viability, T/C [6]: 3.09%
- viability, T/C [7]: 75.4%
- viability, T/C [8]: 82.9%
- viability, T/C [9]: 80.2%
- viability, T/C [10]: 81%
- viability, T/C [11]: 91.9%
- viability, T/C [12]: 0.93%
- viability, T/C [13]: 1.92%
- viability, T/C [14]: 2.64%
- viability, T/C [15]: 2.38%
- viability, T/C [16]: 2.24%
- viability, T/C [17]: 1.56%
- viability, T/C [18]: 0.09%
- viability, T/C [19]: 0.15%
- viability, T/C [20]: 0.21%
- viability, T/C [21]: 2.03%
- viability, T/C [22]: 0.11%
- viability, T/C [23]: 0.1%
- viability, T/C [24]: 1.24%
- viability, T/C [25]: 0.17%
- viability, T/C [26]: 2.27%
- viability, T/C [27]: 0.55%
- viability, T/C [28]: 0.15%
- viability, T/C [29]: 0.12%
- viability, T/C [30]: 1%
- viability, T/C [31]: 1.46%
- viability, T/C [32]: 0.37%
- viability, T/C [33]: 0.27%
- viability, T/C [34]: 0.68%
- viability, T/C [35]: 0.23%
- viability, T/C [36]: 0.25%

SMILES: C=CC(=O)N1CCN(c2nc(=O)n(-c3c(C)ccnc3C(C)C)c3nc(-c4c(O)cccc4F)c(F)cc23)C(C)C1 (stereo unspecified) + CN1CCN(c2cc(C(=O)Nc3cc4cc(-c5cnn(C)c5)ccc4cn3)ccn2)CC1
- IC50 (second compound 0.0316 µM): > 10 µM
- IC50 (second compound 0.1 µM): > 10 µM
- IC50 (second compound 0.316 µM): < 0.0316 µM
- IC50 (second compound 1 µM): < 0.0316 µM
- IC50 (second compound 3.16 µM): < 0.0316 µM
- IC50 (second compound 10 µM): < 0.0316 µM
- viability, T/C [1]: 97%
- viability, T/C [2]: 99.5%
- viability, T/C [3]: 103%
- viability, T/C [4]: 110%
- viability, T/C [5]: 110%
- viability, T/C [6]: 119%
- viability, T/C [7]: 87.6%
- viability, T/C [8]: 88.4%
- viability, T/C [9]: 92.6%
- viability, T/C [10]: 87.1%
- viability, T/C [11]: 98.4%
- viability, T/C [12]: 54.7%
- viability, T/C [13]: 2.25%
- viability, T/C [14]: 2.21%
- viability, T/C [15]: 6.18%
- viability, T/C [16]: 2.73%
- viability, T/C [17]: 4.43%
- viability, T/C [18]: 2.46%
- viability, T/C [19]: 0.13%
- viability, T/C [20]: 1.49%
- viability, T/C [21]: 1.16%
- viability, T/C [22]: 0.14%
- viability, T/C [23]: 0.16%
- viability, T/C [24]: 1.96%
- viability, T/C [25]: 1.3%
- viability, T/C [26]: 0.21%
- viability, T/C [27]: 4.08%
- viability, T/C [28]: 0.17%
- viability, T/C [29]: 4.42%
- viability, T/C [30]: 1.08%
- viability, T/C [31]: 1.96%
- viability, T/C [32]: 0.63%
- viability, T/C [33]: 0.4%
- viability, T/C [34]: 0.69%
- viability, T/C [35]: 0.61%
- viability, T/C [36]: 0.21%

SMILES: COC1C=CCC(C)C(C)S(=O)(=O)NC(=O)c2ccc3c(c2)N(CC2CCC21)CC1(CCCc2cc(Cl)ccc21)CO3 (stereo unspecified) + CN1CCN(c2cc(C(=O)Nc3cc4cc(-c5cnn(C)c5)ccc4cn3)ccn2)CC1
- IC50 (second compound 0.0316 µM): 4.9 µM
- IC50 (second compound 0.1 µM): 0.621 µM
- IC50 (second compound 0.316 µM): < 0.0316 µM
- IC50 (second compound 1 µM): < 0.0316 µM
- IC50 (second compound 3.16 µM): < 0.0316 µM
- IC50 (second compound 10 µM): < 0.0316 µM
- viability, T/C [1]: 102%
- viability, T/C [2]: 97.9%
- viability, T/C [3]: 92.9%
- viability, T/C [4]: 92.8%
- viability, T/C [5]: 75.8%
- viability, T/C [6]: 8.72%
- viability, T/C [7]: 64.4%
- viability, T/C [8]: 74.1%
- viability, T/C [9]: 52.7%
- viability, T/C [10]: 43.8%
- viability, T/C [11]: 27.5%
- viability, T/C [12]: 2.54%
- viability, T/C [13]: 1.25%
- viability, T/C [14]: 2.28%
- viability, T/C [15]: 2.09%
- viability, T/C [16]: 1.79%
- viability, T/C [17]: 1.28%
- viability, T/C [18]: 0.38%
- viability, T/C [19]: 0.11%
- viability, T/C [20]: 0.13%
- viability, T/C [21]: 2.8%
- viability, T/C [22]: 0.16%
- viability, T/C [23]: 0.14%
- viability, T/C [24]: 0.13%
- viability, T/C [25]: 0.17%
- viability, T/C [26]: 0.17%
- viability, T/C [27]: 0.99%
- viability, T/C [28]: 0.25%
- viability, T/C [29]: 0.33%
- viability, T/C [30]: 0.2%
- viability, T/C [31]: 0.21%
- viability, T/C [32]: 0.17%
- viability, T/C [33]: 0.9%
- viability, T/C [34]: 0.28%
- viability, T/C [35]: 0.67%
- viability, T/C [36]: 0.21%
